Laboratory results reported in US6339042B1, “Herbicidal N-cyclohexadienyl heteroaryloxyacetamides” (American Cyanamid Co., priority 1999, dated 2002).

Experiments:
Amaranthus tuberculatus [1] = assay: Pre-emergence herbicidal evaluation, AMATA; format: in vivo; settings: three weeks after treatment
Description: (§1) The treated pots are then placed on greenhouse benches, watered and cared for in accordance with conventional greenhouse procedures.

Alopecurus myosuroides [2] = assay: Pre-emergence herbicidal evaluation, ALOMY; format: in vivo; settings: three weeks after treatment
Description: as §1

Apera spica venti [3] = assay: Pre-emergence herbicidal evaluation, APESV; format: in vivo; settings: three weeks after treatment
Description: as §1

Echinochloa crus-galli [4] = assay: Pre-emergence herbicidal evaluation, ECHCG; format: in vivo; settings: three weeks after treatment
Description: as §1

Setaria viridis [5] = assay: Pre-emergence herbicidal evaluation, SETVI; format: in vivo; settings: three weeks after treatment
Description: as §1

Lolium perenne [6] = assay: Pre-emergence herbicidal evaluation, LOLPE; format: in vivo; settings: three weeks after treatment
Description: as §1

Triticum aestivum [7] = assay: Pre-emergence herbicidal evaluation, TRZAW; format: in vivo; settings: three weeks after treatment
Description: as §1

Hordeum vulgare [8] = assay: Pre-emergence herbicidal evaluation, HORVW; format: in vivo; settings: three weeks after treatment
Description: as §1

Zea mays [9] = assay: Pre-emergence herbicidal evaluation, ZEAMX; format: in vivo; settings: three weeks after treatment
Description: as §1

Glycine max [10] = assay: Pre-emergence herbicidal evaluation, GLXMA; format: in vivo; settings: three weeks after treatment
Description: as §1

Oryza sativum [11] = assay: Pre-emergence herbicidal evaluation, ORYSA; format: in vivo; settings: three weeks after treatment
Description: as §1

Amaranthus tuberculatus [12] = assay: Post-emergence herbicidal evaluation, AMATA; format: in vivo; settings: three weeks after treatment
Galium aparine = assay: Post-emergence herbicidal evaluation, GALAP; settings: three weeks after treatment
Alopecurus myosuroides [13] = assay: Post-emergence herbicidal evaluation, ALOMY; settings: three weeks after treatment
Apera spica venti [14] = assay: Post-emergence herbicidal evaluation, APESV; settings: three weeks after treatment
Echinochloa crus-galli [15] = assay: Post-emergence herbicidal evaluation, ECHCG; settings: three weeks after treatment
Setaria viridis [16] = assay: Post-emergence herbicidal evaluation, SETVI; settings: three weeks after treatment
Lolium perenne [17] = assay: Post-emergence herbicidal evaluation, LOLPE; settings: three weeks after treatment
Triticum aestivum [18] = assay: Post-emergence herbicidal evaluation, TRZAW; settings: three weeks after treatment
Hordeum vulgare [19] = assay: Post-emergence herbicidal evaluation, HORVW; settings: three weeks after treatment
Zea mays [20] = assay: Post-emergence herbicidal evaluation, ZEAMX; settings: three weeks after treatment
Glycine max [21] = assay: Post-emergence herbicidal evaluation, GLXMA; settings: three weeks after treatment
Description: (§2) Each pot is examined three weeks after treatment and phytotoxicity is assessed according to the rating system set forth below.
(§3) These acetone solutions are diluted with water and the resulting formulations applied at dosage levels equivalent of about 0.4 to 0.1 kg per hectare of test compound per pot. After spraying the plants are placed on greenhouse benches and are cared for in the usual manner, commensurate with conventional greenhouse practices.

Oryza sativum [22] = assay: Post-emergence herbicidal evaluation, ORYSA; settings: three weeks after treatment
Description: The compounds of the invention are tested for pre- and post-emergence herbicidal activity.
as §2, §3

In the case of `CC1=CC(N(C)C(=O)COc2nnc(C(F)(F)F)s2)=CC(C)(C)C1` [Example 3], the “phytotoxicity rating AMATA” value (Amaranthus tuberculatus [1]; 0.100 kg/ha) is reported as 0 (0 - No effect), the “phytotoxicity rating AMATA” value (Amaranthus tuberculatus [1]; 0.200 kg/ha) is reported as 0 (0 - No effect) and the “phytotoxicity rating AMATA” value (Amaranthus tuberculatus [1]; 0.400 kg/ha) is reported as 6 (6 - Herbicidal effect). For the same molecule, the “phytotoxicity rating AMATA” value (Amaranthus tuberculatus [1]; 0.800 kg/ha) was 8 (8 - Approaching complete kill), the “phytotoxicity rating ALOMY” value (Alopecurus myosuroides [2]; 0.100 kg/ha) was 6 (6 - Herbicidal effect) and the “phytotoxicity rating ALOMY” value (Alopecurus myosuroides [2]; 0.200 kg/ha) was 8 (8 - Approaching complete kill). The “phytotoxicity rating ALOMY” value (Alopecurus myosuroides [2]; 0.400 kg/ha) was 8 (8 - Approaching complete kill), the “phytotoxicity rating ALOMY” value (Alopecurus myosuroides [2]; 0.800 kg/ha) was 9 (9 - Complete kill) and the “phytotoxicity rating APESV” value (Apera spica venti [3]; 0.100 kg/ha) was 3 (3 - Moderate effect). The “phytotoxicity rating APESV” value (Apera spica venti [3]; 0.200 kg/ha) was 6 (6 - Herbicidal effect), the “phytotoxicity rating APESV” value (Apera spica venti [3]; 0.400 kg/ha) was 8 (8 - Approaching complete kill) and the “phytotoxicity rating APESV” value (Apera spica venti [3]; 0.800 kg/ha) was 9 (9 - Complete kill). For the same molecule, the “phytotoxicity rating ECHCG” value (Echinochloa crus-galli [4]; 0.100 kg/ha) was 6 (6 - Herbicidal effect), the “phytotoxicity rating ECHCG” value (Echinochloa crus-galli [4]; 0.200 kg/ha) was 8 (8 - Approaching complete kill) and the “phytotoxicity rating ECHCG” value (Echinochloa crus-galli [4]; 0.400 kg/ha) was 8 (8 - Approaching complete kill). The “phytotoxicity rating ECHCG” value (Echinochloa crus-galli [4]; 0.800 kg/ha) was 9 (9 - Complete kill), the “phytotoxicity rating SETVI” value (Setaria viridis [5]; 0.100 kg/ha) was 6 (6 - Herbicidal effect) and the “phytotoxicity rating SETVI” value (Setaria viridis [5]; 0.200 kg/ha) was 8 (8 - Approaching complete kill). For the same molecule, the “phytotoxicity rating SETVI” value (Setaria viridis [5]; 0.400 kg/ha) was 8 (8 - Approaching complete kill), the “phytotoxicity rating SETVI” value (Setaria viridis [5]; 0.800 kg/ha) was 9 (9 - Complete kill) and the “phytotoxicity rating LOLPE” value (Lolium perenne [6]; 0.100 kg/ha) was 3 (3 - Moderate effect). The “phytotoxicity rating LOLPE” value (Lolium perenne [6]; 0.200 kg/ha) was 7 (7 - Good herbicidal effect), the “phytotoxicity rating LOLPE” value (Lolium perenne [6]; 0.400 kg/ha) was 9 (9 - Complete kill) and the “phytotoxicity rating LOLPE” value (Lolium perenne [6]; 0.800 kg/ha) was 9 (9 - Complete kill). For the same molecule, the “phytotoxicity rating TRZAW” value (Triticum aestivum [7]; 0.100 kg/ha) was 0 (0 - No effect), the “phytotoxicity rating TRZAW” value (Triticum aestivum [7]; 0.200 kg/ha) was 1 (1 - Trace effect) and the “phytotoxicity rating TRZAW” value (Triticum aestivum [7]; 0.400 kg/ha) was 1 (1 - Trace effect). For the same molecule, the “phytotoxicity rating TRZAW” value (Triticum aestivum [7]; 0.800 kg/ha) was 3 (3 - Moderate effect), the “phytotoxicity rating HORVW” value (Hordeum vulgare [8]; 0.100 kg/ha) was 0 (0 - No effect) and the “phytotoxicity rating HORVW” value (Hordeum vulgare [8]; 0.200 kg/ha) was 1 (1 - Trace effect). The “phytotoxicity rating HORVW” value (Hordeum vulgare [8]; 0.400 kg/ha) was 1 (1 - Trace effect), the “phytotoxicity rating HORVW” value (Hordeum vulgare [8]; 0.800 kg/ha) was 4 (4 - Injury) and the “phytotoxicity rating ZEAMX” value (Zea mays [9]; 0.100 kg/ha) was 0 (0 - No effect). For the same molecule, the “phytotoxicity rating ZEAMX” value (Zea mays [9]; 0.200 kg/ha) was 1 (1 - Trace effect), the “phytotoxicity rating ZEAMX” value (Zea mays [9]; 0.400 kg/ha) was 3 (3 - Moderate effect) and the “phytotoxicity rating ZEAMX” value (Zea mays [9]; 0.800 kg/ha) was 7 (7 - Good herbicidal effect). The “phytotoxicity rating GLXMA” value (Glycine max [10]; 0.100 kg/ha) was 0 (0 - No effect), the “phytotoxicity rating GLXMA” value (Glycine max [10]; 0.200 kg/ha) was 0 (0 - No effect) and the “phytotoxicity rating GLXMA” value (Glycine max [10]; 0.400 kg/ha) was 0 (0 - No effect). For the same molecule, the “phytotoxicity rating GLXMA” value (Glycine max [10]; 0.800 kg/ha) was 0 (0 - No effect), the “phytotoxicity rating ORYSA” value (Oryza sativum [11]; 0.100 kg/ha) was 1 (1 - Trace effect) and the “phytotoxicity rating ORYSA” value (Oryza sativum [11]; 0.200 kg/ha) was 3 (3 - Moderate effect). The “phytotoxicity rating ORYSA” value (Oryza sativum [11]; 0.400 kg/ha) was 6 (6 - Herbicidal effect), the “phytotoxicity rating ORYSA” value (Oryza sativum [11]; 0.800 kg/ha) was 6 (6 - Herbicidal effect) and the “phytotoxicity rating AMATA” value (Amaranthus tuberculatus [12]; 0.200 kg/ha) was 0 (0 - No effect). The “phytotoxicity rating AMATA” value (Amaranthus tuberculatus [12]; 0.400 kg/ha) was 0 (0 - No effect), the melting point was 54 to 57 °C and the “phytotoxicity rating GALAP” value (Galium aparine; 0.200 kg/ha) was 4 (4 - Injury). For the same molecule, the “phytotoxicity rating GALAP” value (Galium aparine; 0.400 kg/ha) was 5 (5 - Definite injury), the “phytotoxicity rating ALOMY” value (Alopecurus myosuroides [13]; 0.200 kg/ha) was 4 (4 - Injury) and the “phytotoxicity rating ALOMY” value (Alopecurus myosuroides [13]; 0.400 kg/ha) was 7 (7 - Good herbicidal effect). The “phytotoxicity rating APESV” value (Apera spica venti [14]; 0.200 kg/ha) was 6 (6 - Herbicidal effect), the “phytotoxicity rating APESV” value (Apera spica venti [14]; 0.400 kg/ha) was 3 (3 - Moderate effect) and the “phytotoxicity rating ECHCG” value (Echinochloa crus-galli [15]; 0.200 kg/ha) was 1 (1 - Trace effect). The “phytotoxicity rating ECHCG” value (Echinochloa crus-galli [15]; 0.400 kg/ha) was 4 (4 - Injury), the “phytotoxicity rating SETVI” value (Setaria viridis [16]; 0.200 kg/ha) was 0 (0 - No effect) and the “phytotoxicity rating SETVI” value (Setaria viridis [16]; 0.400 kg/ha) was 0 (0 - No effect). The “phytotoxicity rating LOLPE” value (Lolium perenne [17]; 0.200 kg/ha) was 7 (7 - Good herbicidal effect), the “phytotoxicity rating LOLPE” value (Lolium perenne [17]; 0.400 kg/ha) was 7 (7 - Good herbicidal effect) and the “phytotoxicity rating TRZAW” value (Triticum aestivum [18]; 0.200 kg/ha) was 1 (1 - Trace effect). For the same molecule, the “phytotoxicity rating TRZAW” value (Triticum aestivum [18]; 0.400 kg/ha) was 3 (3 - Moderate effect), the “phytotoxicity rating HORVW” value (Hordeum vulgare [19]; 0.200 kg/ha) was 0 (0 - No effect) and the “phytotoxicity rating HORVW” value (Hordeum vulgare [19]; 0.400 kg/ha) was 2 (2 - Slight effect). The “phytotoxicity rating ZEAMX” value (Zea mays [20]; 0.200 kg/ha) was 0 (0 - No effect), the “phytotoxicity rating ZEAMX” value (Zea mays [20]; 0.400 kg/ha) was 0 (0 - No effect) and the “phytotoxicity rating GLXMA” value (Glycine max [21]; 0.200 kg/ha) was 2 (2 - Slight effect). The “phytotoxicity rating GLXMA” value (Glycine max [21]; 0.400 kg/ha) was 4 (4 - Injury), the “phytotoxicity rating ORYSA” value (Oryza sativum [22]; 0.200 kg/ha) was 0 (0 - No effect) and the “phytotoxicity rating ORYSA” value (Oryza sativum [22]; 0.400 kg/ha) was 2 (2 - Slight effect).
